Values of other authors in PMC10340494, “Sweeteners’ Influence on In Vitro α-Glucosidase Inhibitory Activity, Cytotoxicity, Stability and In Vivo Bioavailability of the Anthocyanins from Lingonberry Jams” (Foods, 2023).

How the values were obtained:
maltase = test system: maltase; parameters: method as in PMID 18615280
sucrase = test system: sucrase; parameters: method as in PMID 18615280

Inhibition of maltase (maltase): 35%
Inhibition of sucrase (sucrase): 64%
Structure (SMILES): OC[C@H]1O[C@@H](Oc2cc3c(O)cc(O)cc3[o+]c2-c2ccc(O)c(O)c2)[C@H](O)[C@@H](O)[C@H]1O [cyanidin-3-galactoside]
